The text below walks through data of US20080004281A1, “METHODS FOR THE MODULATION OF CRP BY THE SELECTIVE MODULATION OF PPAR DELTA” (KALYPSYS, INC., priority 2006, published 2008).

The subject of the assay is plasma CRP. The assay is described as follows: Plasma CRP in hyperlipidemic obese rhesus macaques, dose-escalating treatment. The class given is in vivo. The procedure: In the present study, n=6 male obese rhesus macaques were selected for the study and prepared with 4 weeks of diet run-in (week −4 to week 0). At week 0, blood samples were taken in order to determine baseline plasma levels of CRP were measured prior to beginning dosage with Compound 1 as tosylate salt. Dosage began on the same day at 6 mg/kg/day in divided doses, given with food, and continued for four weeks. Dose was subsequently escalated at 4-week intervals to 12 mg/kg/d, 24 mg/kg/d, and finally 48 mg/kg/day. Plasma samples were taken at the close of each 4-week regimen, and a final sample was taken after 4 weeks of washout following discontinuation of dosing.
Quantitative measurements of plasma CRP in each sample taken were made by LabCorp, Inc. (Laboratory Corporation of America) by a multi-calibrator based high sensitivity wide ranged method using a immunoturbidometric assay. The limit of quantitation for the assay was 0.05 mg/dL and the highest point on the calibrator was 32 mg/dL. Mean values as percent change from baseline, and standard deviation as percent change from baseline, were calculated across the group and are shown in Table 2. Mean values for weeks 8-16 fell below the limit of quantiatation, and no data could therefore be reported for the standard deviation.

SMILES strings stand for the structures.

With `C[C@@H]1CN(c2ccc(OC(F)(F)F)cc2)C[C@H](C)N1S(=O)(=O)c1cccc2c1CC(C(=O)O)C2` (stereo partly drawn) [Compound 1, 4-[cis-2,6-Dimethyl-4-(4-trifluoromethoxy-phenyl)-piperazine-1-sulfonyl]-indan-2-carboxylic acid], the “plasma CRP change” value (over 16 weeks of dose-escalating treatment, hyperlipidemic rhesus macaques) is reported as “significantly reduced”. Moreover, the “CRP levels during the washout period” value (washout period after 16 weeks of dosing) is recorded as “reverted back to the pre-treatment levels”. For the same compound, the Mean Plasma CRP reads like this: (week 4, 6 mg/kg per day in divided doses with food, as tosylate salt, n=6 male obese rhesus macaques, baseline week 0 = 0.233) 0.166 mg/dL; (week 8, 12 mg/kg per day, as tosylate salt, LOQ 0.05) less than 0.05 mg/dL; (week 12, 24 mg/kg per day, as tosylate salt, LOQ 0.05) less than 0.05 mg/dL; (week 16, 48 mg/kg per day, as tosylate salt, LOQ 0.05) less than 0.05 mg/dL; (week 20, after 4 weeks of washout following discontinuation of dosing (dose 0)) 0.183 mg/dL.
